Molecules are shown by their SMILES.

The source of these data is patent US20170037014A1, “FUNGICIDAL PYRAZOLES” (E. I. DU PONT DE NEMOURS AND COMPANY, priority 2014, published 2017).

For one data set, the system named is Botrytis cinerea. Put plainly: Test C: tomato Botrytis, preventive spray on tomato seedlings, visual disease rating. The note with it: Botrytis cinerea, 100 = 100% disease control, 0 = no control. It is filed as in vivo. The text has this:
General protocol for preparing test suspensions for Tests A-D: the test compounds were first dissolved in acetone in an amount equal to 3% of the final volume and then suspended at the desired concentration (in ppm) in acetone and purified water (50/50 mix by volume) containing 250 ppm of the surfactant Trem® 014 (polyhydric alcohol esters). The resulting test suspensions were then used in Tests A-D. The test suspension was sprayed to the point of run-off on tomato seedlings. The following day the seedlings were inoculated with a spore suspension of Botrytis cinerea (the causal agent of tomato Botrytis) and incubated in a saturated atmosphere at 20° C. for 48 h, and then moved to a growth chamber at 24° C. for 3 days, after which time visual disease ratings were made. In the Table, a rating of 100 indicates 100% disease control and a rating of 0 indicates no disease control (relative to the controls). A dash (−) indicates no test results. All results are for 250 ppm except where followed by an “*” which indicates 50 ppm, and where followed by an “**” which indicates 10 ppm

The subject of the next data set is Septoria tritici. In words: Test B: wheat leaf blotch, preventive spray on wheat seedlings, visual disease rating. The data set is classed as in vivo. The note with it: Zymoseptoria tritici, 100 = 100% disease control, 0 = no control. The text has this: General protocol for preparing test suspensions for Tests A-D: the test compounds were first dissolved in acetone in an amount equal to 3% of the final volume and then suspended at the desired concentration (in ppm) in acetone and purified water (50/50 mix by volume) containing 250 ppm of the surfactant Trem® 014 (polyhydric alcohol esters). The resulting test suspensions were then used in Tests A-D. The test suspension was sprayed to the point of run-off on wheat seedlings. The following day the seedlings were inoculated with a spore suspension of Septoria tritici (the causal agent of wheat leaf blotch) and incubated in a saturated atmosphere at 24° C. for 48 h, and then moved to a growth chamber at 20° C. for 19 days, after which time visual disease ratings were made. In the Table, a rating of 100 indicates 100% disease control and a rating of 0 indicates no disease control (relative to the controls). A dash (−) indicates no test results. All results are for 250 ppm except where followed by an “*” which indicates 50 ppm, and where followed by an “**” which indicates 10 ppm

In data set [1] the test system is Puccinia recondita f sp. tritici. Put plainly: Test A: wheat leaf rust, preventive spray on wheat seedlings, visual disease rating. The data set is classed as in vivo. As to conditions: 100 = 100% disease control, 0 = no control. The text has this:
General protocol for preparing test suspensions for Tests A-D: the test compounds were first dissolved in acetone in an amount equal to 3% of the final volume and then suspended at the desired concentration (in ppm) in acetone and purified water (50/50 mix by volume) containing 250 ppm of the surfactant Trem® 014 (polyhydric alcohol esters). The resulting test suspensions were then used in Tests A-D. The test suspension was sprayed to the point of run-off on wheat seedlings. The following day the seedlings were inoculated with a spore suspension of Puccinia recondita f sp. tritici (the causal agent of wheat leaf rust) and incubated in a saturated atmosphere at 20° C. for 24 h, and then moved to a growth chamber at 20° C. for 7 days, after which time visual disease ratings were made. In the Table, a rating of 100 indicates 100% disease control and a rating of 0 indicates no disease control (relative to the controls). A dash (−) indicates no test results. All results are for 250 ppm except where followed by an “*” which indicates 50 ppm, and where followed by an “**” which indicates 10 ppm

Data set [2] concerns Blumeria graminis f sp. tritici. Put plainly: Test D: wheat powdery mildew, preventive spray on wheat seedlings, visual disease rating. The note with it: Blumeria graminis, 100 = 100% disease control, 0 = no control. It is filed as in vivo. The text has this: General protocol for preparing test suspensions for Tests A-D: the test compounds were first dissolved in acetone in an amount equal to 3% of the final volume and then suspended at the desired concentration (in ppm) in acetone and purified water (50/50 mix by volume) containing 250 ppm of the surfactant Trem® 014 (polyhydric alcohol esters). The resulting test suspensions were then used in Tests A-D. The test suspension was sprayed to the point of run-off on wheat seedlings. The following day the seedlings were inoculated with a spore dust of Blumeria graminis f sp. tritici, (also known as Erysiphe graminis f. sp. tritici, the causal agent of wheat powdery mildew) and incubated in a growth chamber at 20° C. for 8 days, after which time visual disease ratings were made. In the Table, a rating of 100 indicates 100% disease control and a rating of 0 indicates no disease control (relative to the controls). A dash (−) indicates no test results. All results are for 250 ppm except where followed by an “*” which indicates 50 ppm, and where followed by an “**” which indicates 10 ppm

As to `CCC(C)c1c(C(O)c2c(F)cc(F)cc2F)c(C)nn1C` (stereo not drawn) [Compound 23, 1,3-dimethyl-5-(1-methylpropyl)-α-(2,4,6-trifluorophenyl)-1H-pyrazole-4-methanol], the melting point fell in the range of 114 to 117 °C. In addition, the pest or weed control at 50 ppm in the data set with Botrytis cinerea worked out at 31%. Moreover, the pest or weed control at 50 ppm in the data set on Septoria tritici worked out at 94%. In data set [1], this compound registered a pest or weed control at 50 ppm of 97%. Moreover, in data set [2], the pest or weed control at 50 ppm was found to be 96%.

Take `CCC(C)c1c(C(O)c2ccc(F)cc2F)c(C)nn1C` (stereo not drawn) [Compound 10, α-(2,4-difluorophenyl)-1,3-dimethyl-5-(1-methylpropyl)-1H-pyrazole-4-methanol]: the melting point is 118 to 121 °C. The compound also displayed a pest or weed control at 250 ppm in the data set on Botrytis cinerea of 99%. The compound also had a pest or weed control at 250 ppm with Septoria tritici of 99%. For the same compound, the pest or weed control at 250 ppm in data set [1] came out at 100%. Besides, in data set [2], the pest or weed control at 250 ppm worked out at 100%.

`CCC(C)c1c(C(O)c2ccc(F)cc2Cl)c(C)nn1C` (stereo not drawn) [Compound 9, α-(2-chloro-4-fluorophenyl)-1,3-dimethyl-5-(1-methylpropyl)-1H-pyrazole-4-methanol] gave a melting point of 128 to 131 °C. Also, the pest or weed control at 50 ppm in the data set on Botrytis cinerea amounted to 99%. In the data set on Septoria tritici, the pest or weed control at 50 ppm was 99%. In data set [1], this compound registered a pest or weed control at 50 ppm of 100%. The compound further yielded a pest or weed control at 50 ppm in data set [2] of 99%.

`Cc1nn(C)c(C2CCCCC2)c1C(O)c1ccc(F)cc1Cl` (stereo not drawn) [Compound 8, α-(2-chloro-4-fluorophenyl)-5-cyclohexyl-1,3-dimethyl-1H-pyrazole-4-methanol] returned a melting point of 146 to 149 °C. Also, the pest or weed control at 250 ppm in the data set with Botrytis cinerea worked out at 86%. Besides, in the data set with Septoria tritici, the pest or weed control at 250 ppm is 99%. In data set [1], this compound displayed a pest or weed control at 250 ppm of 99%. In addition, the pest or weed control at 250 ppm in data set [2] was determined as 93%.

As to `Cc1nn(C)c(C2CCCCC2)c1Oc1ccc(F)cc1Cl` [Compound 12, 4-(2-chloro-4-fluorophenoxy)-5-cyclohexyl-1,3-dimethyl-1H-pyrazole], the melting point was 75 to 79 °C. In the data set with Botrytis cinerea, this compound showed a pest or weed control at 250 ppm of 9%. This compound returned a pest or weed control at 250 ppm in the data set with Septoria tritici of 19%. The pest or weed control at 250 ppm in data set [1] turned out to be 79%. The pest or weed control at 250 ppm in data set [2] worked out at 90%.

Usually pest or weed control stands for how far the test organism was held down. A low value points to a weak effect. In general, melting point refers to the temperature of the solid-liquid transition.
